Laboratory results as given in ChEMBL document CHEMBL1149477, “Monocyclic thiophenes as protein tyrosine phosphatase 1B inhibitors: capturing interactions with Asp48” (Bioorg Med Chem Lett, 2006).
Calls of active or inactive are those of the source. The calls are words filed in the database; no cut-off is given here.

These molecules were tested against T1, Tyrosine-protein phosphatase non-receptor type 1 (Homo sapiens) (UniProt P18031) (assay: (§1) Inhibition of PTP1B).
T1 sequence (whole entry): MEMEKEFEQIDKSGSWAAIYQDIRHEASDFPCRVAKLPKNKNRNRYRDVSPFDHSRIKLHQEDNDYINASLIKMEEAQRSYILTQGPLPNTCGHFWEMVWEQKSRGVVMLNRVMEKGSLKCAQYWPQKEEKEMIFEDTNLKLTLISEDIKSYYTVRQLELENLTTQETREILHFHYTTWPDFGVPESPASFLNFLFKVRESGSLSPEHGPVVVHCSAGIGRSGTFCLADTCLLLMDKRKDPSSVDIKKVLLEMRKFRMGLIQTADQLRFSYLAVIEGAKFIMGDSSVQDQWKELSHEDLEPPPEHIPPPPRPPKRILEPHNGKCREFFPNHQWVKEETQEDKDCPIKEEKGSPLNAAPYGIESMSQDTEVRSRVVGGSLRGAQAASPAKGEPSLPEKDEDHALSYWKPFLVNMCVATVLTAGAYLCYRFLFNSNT

Activity	SMILES
inactive	O=C(O)COc1c(C(=O)O)sc(-c2ccccc2)c1-c1ccccc1

The molecules below were run against T2, Tyrosine-protein phosphatase non-receptor type 1 (Homo sapiens, UniProt P18031) (assay: as §1).
T2 sequence (P18031 whole entry): T1 sequence (whole entry)

Ki	SMILES
3 µM	COc1ccc(-c2sc(C(=O)O)c(OCC(=O)O)c2Br)cc1
0.74 µM	CS(=O)(=O)Nc1ccc(-c2sc(C(=O)O)c(OCC(=O)O)c2Br)cc1
> 1000 µM	O=C(O)COc1c(-c2ccccc2)csc1C(=O)O
> 1000 µM	Cc1csc(C(=O)O)c1OCC(=O)O
1.4 µM	O=C(O)COc1c(C(=O)O)sc(-c2ccsc2)c1Br
0.6 µM	O=C(O)COc1c(C(=O)O)sc(-c2ccc(NC(=O)c3ccccc3)cc2)c1Br
0.57 µM	O=C(O)COc1c(C(=O)O)sc(-c2ccc3cc[nH]c3c2)c1Br
2.5 µM	O=C(O)COc1c(C(=O)O)sc(-c2ccc(C(=O)Nc3ccccc3)cc2)c1Br
4 µM	O=C(O)COc1c(C(=O)O)sc(-c2cccnc2)c1Br
5 µM	O=C(O)COc1c(C(=O)O)sc(-c2ccc3ccoc3c2)c1Br
1.6 µM	Nc1ccc(-c2sc(C(=O)O)c(OCC(=O)O)c2Br)cc1
0.2 µM	O=C(O)COc1c(C(=O)O)sc(-c2ccc(NS(=O)(=O)c3ccc(C(F)(F)F)cc3)cc2)c1Br
> 1000 µM	O=C(O)COc1ccsc1C(=O)O
1 µM	O=C(O)COc1c(C(=O)O)sc(-c2cccc(O)c2)c1Br
18 µM	O=C(O)COc1c(C(=O)O)sc(Br)c1Br
1.2 µM	CN(c1ccc(-c2sc(C(=O)O)c(OCC(=O)O)c2Br)cc1)S(=O)(=O)c1ccc(C(F)(F)F)cc1
0.25 µM	CC1(C)CC(Nc2ccc(-c3sc(C(=O)O)c(OCC(=O)O)c3Br)cc2)CC(C)(C)C1
0.5 µM	CC(=O)Nc1ccc(-c2sc(C(=O)O)c(OCC(=O)O)c2Br)cc1
0.62 µM	O=C(O)COc1c(C(=O)O)sc(-c2ccc(NC(=O)c3ccco3)cc2)c1Br
0.36 µM	CC(C)NC(=O)Nc1ccc(-c2sc(C(=O)O)c(OCC(=O)O)c2Br)cc1
3.3 µM	O=C(O)COc1c(C(=O)O)sc(-c2ccc3ccccc3c2)c1Br
1 µM	COC(=O)Nc1ccc(-c2sc(C(=O)O)c(OCC(=O)O)c2Br)cc1

Each molecule was assayed against T3, Receptor-type tyrosine-protein phosphatase C (Homo sapiens, UniProt P08575) (assay: Inhibition of CD45).
T3 sequence (P08575 whole entry): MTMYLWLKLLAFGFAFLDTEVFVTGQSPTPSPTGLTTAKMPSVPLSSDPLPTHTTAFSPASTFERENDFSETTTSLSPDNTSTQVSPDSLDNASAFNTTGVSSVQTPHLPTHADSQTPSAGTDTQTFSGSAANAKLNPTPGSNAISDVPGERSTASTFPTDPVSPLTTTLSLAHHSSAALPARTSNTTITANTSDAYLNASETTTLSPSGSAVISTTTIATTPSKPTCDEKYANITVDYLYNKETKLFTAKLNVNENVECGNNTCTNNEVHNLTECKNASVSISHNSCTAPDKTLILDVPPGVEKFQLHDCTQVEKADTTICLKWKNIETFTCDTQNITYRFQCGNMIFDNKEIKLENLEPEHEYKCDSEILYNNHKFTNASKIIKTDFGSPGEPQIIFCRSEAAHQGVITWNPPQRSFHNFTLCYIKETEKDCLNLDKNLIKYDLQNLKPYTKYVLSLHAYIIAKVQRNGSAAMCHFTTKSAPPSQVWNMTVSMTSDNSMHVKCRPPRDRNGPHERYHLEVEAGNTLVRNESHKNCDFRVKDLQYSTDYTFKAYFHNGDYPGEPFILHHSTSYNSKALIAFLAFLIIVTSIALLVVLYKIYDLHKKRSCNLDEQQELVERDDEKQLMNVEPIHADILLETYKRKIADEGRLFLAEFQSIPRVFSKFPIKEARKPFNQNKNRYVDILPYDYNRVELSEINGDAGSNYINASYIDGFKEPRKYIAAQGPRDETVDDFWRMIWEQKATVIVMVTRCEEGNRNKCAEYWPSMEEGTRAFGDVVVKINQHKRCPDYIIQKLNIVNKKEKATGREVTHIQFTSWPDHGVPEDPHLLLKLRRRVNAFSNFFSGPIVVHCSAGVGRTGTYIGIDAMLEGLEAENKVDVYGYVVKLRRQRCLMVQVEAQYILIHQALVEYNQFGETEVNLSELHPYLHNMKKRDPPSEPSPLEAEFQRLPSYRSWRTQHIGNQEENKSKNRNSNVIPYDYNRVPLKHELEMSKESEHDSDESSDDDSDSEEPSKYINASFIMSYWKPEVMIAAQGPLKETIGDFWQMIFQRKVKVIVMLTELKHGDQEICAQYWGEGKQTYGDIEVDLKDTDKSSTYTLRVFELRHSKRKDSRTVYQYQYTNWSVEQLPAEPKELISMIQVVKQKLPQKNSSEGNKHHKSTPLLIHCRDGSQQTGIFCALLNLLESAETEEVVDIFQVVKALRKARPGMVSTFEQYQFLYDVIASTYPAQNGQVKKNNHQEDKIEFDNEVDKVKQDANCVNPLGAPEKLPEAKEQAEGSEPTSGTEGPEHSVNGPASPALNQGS

Ki	SMILES
33 µM	O=C(O)COc1c(C(=O)O)sc(-c2ccc(NC(=O)CC(=O)O)cc2)c1Br
55 µM	O=C(O)COc1c(C(=O)O)sc(-c2ccc(NC(=O)c3cccnc3)cc2)c1Br
64 µM	CN(C)c1ccc(-c2sc(C(=O)O)c(OCC(=O)O)c2Br)cc1
26 µM	O=C(O)COc1c(C(=O)O)sc(-c2ccccc2)c1Br

Each molecule was assayed against Receptor-type tyrosine-protein phosphatase F (Homo sapiens, UniProt P10586) (assay: Inhibition of LAR).
Chain of Receptor-type tyrosine-protein phosphatase F (P10586 whole entry): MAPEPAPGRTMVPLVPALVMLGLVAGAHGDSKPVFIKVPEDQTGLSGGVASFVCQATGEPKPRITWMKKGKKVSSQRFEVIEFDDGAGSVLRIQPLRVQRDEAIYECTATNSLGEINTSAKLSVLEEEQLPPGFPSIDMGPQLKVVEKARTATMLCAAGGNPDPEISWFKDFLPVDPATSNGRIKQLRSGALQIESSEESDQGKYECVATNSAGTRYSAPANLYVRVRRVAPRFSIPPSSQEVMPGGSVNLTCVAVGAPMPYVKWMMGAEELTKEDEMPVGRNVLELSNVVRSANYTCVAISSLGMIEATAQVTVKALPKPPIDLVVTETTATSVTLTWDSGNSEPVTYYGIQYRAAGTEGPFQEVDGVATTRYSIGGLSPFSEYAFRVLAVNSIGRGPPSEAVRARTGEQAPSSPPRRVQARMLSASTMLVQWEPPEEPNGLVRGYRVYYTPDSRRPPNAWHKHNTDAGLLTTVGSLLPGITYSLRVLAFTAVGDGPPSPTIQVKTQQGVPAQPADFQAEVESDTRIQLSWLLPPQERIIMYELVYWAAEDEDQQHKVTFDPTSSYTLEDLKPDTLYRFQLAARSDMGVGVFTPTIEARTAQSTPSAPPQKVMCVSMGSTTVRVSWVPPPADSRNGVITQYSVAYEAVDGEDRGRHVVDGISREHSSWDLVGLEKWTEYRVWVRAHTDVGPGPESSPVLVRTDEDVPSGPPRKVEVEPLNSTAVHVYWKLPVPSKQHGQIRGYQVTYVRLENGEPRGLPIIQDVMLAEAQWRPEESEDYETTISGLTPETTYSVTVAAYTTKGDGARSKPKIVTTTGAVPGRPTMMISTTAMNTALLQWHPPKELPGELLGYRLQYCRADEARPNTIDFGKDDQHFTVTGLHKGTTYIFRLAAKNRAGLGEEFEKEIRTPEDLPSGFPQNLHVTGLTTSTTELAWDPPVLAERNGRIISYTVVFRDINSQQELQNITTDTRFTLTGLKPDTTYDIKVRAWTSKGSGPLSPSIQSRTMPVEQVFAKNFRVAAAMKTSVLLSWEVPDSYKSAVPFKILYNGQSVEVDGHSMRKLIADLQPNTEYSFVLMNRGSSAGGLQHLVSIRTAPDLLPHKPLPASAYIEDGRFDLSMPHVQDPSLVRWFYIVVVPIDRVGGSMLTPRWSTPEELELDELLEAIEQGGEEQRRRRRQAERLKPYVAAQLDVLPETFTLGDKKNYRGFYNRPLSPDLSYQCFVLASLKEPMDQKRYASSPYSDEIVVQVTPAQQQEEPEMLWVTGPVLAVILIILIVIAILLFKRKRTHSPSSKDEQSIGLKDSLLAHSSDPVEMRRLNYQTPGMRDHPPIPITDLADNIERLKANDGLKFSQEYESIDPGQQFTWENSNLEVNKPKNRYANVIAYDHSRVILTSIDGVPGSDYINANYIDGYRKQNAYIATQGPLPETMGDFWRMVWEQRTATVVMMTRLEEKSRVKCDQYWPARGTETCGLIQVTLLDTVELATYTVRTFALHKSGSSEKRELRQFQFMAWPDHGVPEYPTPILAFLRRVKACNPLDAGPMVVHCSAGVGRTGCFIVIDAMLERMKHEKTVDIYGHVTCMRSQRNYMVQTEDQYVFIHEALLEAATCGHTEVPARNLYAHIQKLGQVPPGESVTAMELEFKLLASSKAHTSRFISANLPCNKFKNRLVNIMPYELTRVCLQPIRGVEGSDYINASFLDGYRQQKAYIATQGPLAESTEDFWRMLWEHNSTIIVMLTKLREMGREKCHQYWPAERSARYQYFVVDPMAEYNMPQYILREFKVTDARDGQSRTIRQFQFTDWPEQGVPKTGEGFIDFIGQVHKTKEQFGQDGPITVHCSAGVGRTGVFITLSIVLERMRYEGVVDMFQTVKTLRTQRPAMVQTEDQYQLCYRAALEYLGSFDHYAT

Ki	SMILES
> 1000 µM	O=C(O)COc1c(C(=O)O)sc(-c2ccc(NC(=O)CC(=O)O)cc2)c1Br
320 µM	O=C(O)COc1c(C(=O)O)sc(-c2ccc(NC(=O)c3cccnc3)cc2)c1Br
> 1000 µM	CN(C)c1ccc(-c2sc(C(=O)O)c(OCC(=O)O)c2Br)cc1
> 1000 µM	O=C(O)COc1c(C(=O)O)sc(-c2ccccc2)c1Br
